Earlier results on one compound are cited in US8778840B2, “Soluble liquid formulations of quinclorac ammonium salts” (BASF SE, priority 2007, dated 2014).

Molecules are shown by their SMILES.

The conditions of this data set: pH 7 at 20° C.

In the case of `O=C(O)c1c(Cl)ccc2cc(Cl)cnc12` [Quinclorac, 3,7-dichloro-8-quinolinecarboxylic acid], the solubility in water is 0.065 mg/kg.
